Eleven compounds from ChEMBL document CHEMBL5291721, “A preclinical secondary pharmacology resource illuminates target-adverse drug reaction associations of marketed drugs” (Nat Commun, 2023) can be followed below.

Where only a bound is given, the exact number is not on record here.

For one assay, the target named is T1, Adenosine receptor A1 (Homo sapiens, UniProt P30542).
T1 sequence (P30542 whole entry): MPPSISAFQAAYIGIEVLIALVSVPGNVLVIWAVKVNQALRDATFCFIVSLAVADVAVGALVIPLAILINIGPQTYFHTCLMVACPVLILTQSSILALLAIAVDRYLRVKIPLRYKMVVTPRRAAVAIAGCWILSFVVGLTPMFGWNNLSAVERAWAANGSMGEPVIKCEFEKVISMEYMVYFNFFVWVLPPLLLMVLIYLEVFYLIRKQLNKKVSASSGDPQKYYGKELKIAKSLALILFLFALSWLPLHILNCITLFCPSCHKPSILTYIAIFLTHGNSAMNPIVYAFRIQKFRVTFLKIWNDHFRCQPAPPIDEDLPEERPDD

Another assay addresses T2, Adenosine receptor A3 (Homo sapiens, UniProt P0DMS8).
T2 sequence (P0DMS8 whole entry): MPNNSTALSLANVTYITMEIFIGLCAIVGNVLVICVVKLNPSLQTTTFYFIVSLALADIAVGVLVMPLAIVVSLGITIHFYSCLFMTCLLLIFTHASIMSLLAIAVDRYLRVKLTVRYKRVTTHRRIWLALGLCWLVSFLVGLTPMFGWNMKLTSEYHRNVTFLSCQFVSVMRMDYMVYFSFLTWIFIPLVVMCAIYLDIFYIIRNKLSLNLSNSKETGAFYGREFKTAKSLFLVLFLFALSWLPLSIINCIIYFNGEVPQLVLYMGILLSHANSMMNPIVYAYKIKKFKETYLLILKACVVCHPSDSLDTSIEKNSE

A further assay deals with D(1A) dopamine receptor (Homo sapiens, UniProt P21728). The format is functional, cell-based.
The target in assay [1] is 5-hydroxytryptamine receptor 2B (Homo sapiens, UniProt P41595). The assay is classed as functional, cell-based.
Assay [2] has as its target T3, 5-hydroxytryptamine receptor 2C (Homo sapiens, UniProt P28335).
T3 sequence (P28335 whole entry): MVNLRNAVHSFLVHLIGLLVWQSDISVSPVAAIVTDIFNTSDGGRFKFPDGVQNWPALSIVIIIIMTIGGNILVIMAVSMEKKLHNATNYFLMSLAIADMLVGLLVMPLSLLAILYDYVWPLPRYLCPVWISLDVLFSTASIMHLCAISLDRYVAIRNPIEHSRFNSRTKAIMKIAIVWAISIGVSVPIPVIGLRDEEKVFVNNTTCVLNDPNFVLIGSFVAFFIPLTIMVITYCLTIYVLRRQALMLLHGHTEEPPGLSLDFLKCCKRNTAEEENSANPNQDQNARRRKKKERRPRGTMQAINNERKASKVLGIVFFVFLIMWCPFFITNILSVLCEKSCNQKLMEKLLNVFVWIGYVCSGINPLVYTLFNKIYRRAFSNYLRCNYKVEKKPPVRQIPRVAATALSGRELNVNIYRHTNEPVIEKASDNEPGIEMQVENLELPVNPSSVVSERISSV

The next assay concerns the target Melanocortin receptor 3 (Homo sapiens, UniProt P41968).
The next assay deals with T4, Glucocorticoid receptor (Homo sapiens, UniProt P04150).
T4 sequence (P04150 whole entry): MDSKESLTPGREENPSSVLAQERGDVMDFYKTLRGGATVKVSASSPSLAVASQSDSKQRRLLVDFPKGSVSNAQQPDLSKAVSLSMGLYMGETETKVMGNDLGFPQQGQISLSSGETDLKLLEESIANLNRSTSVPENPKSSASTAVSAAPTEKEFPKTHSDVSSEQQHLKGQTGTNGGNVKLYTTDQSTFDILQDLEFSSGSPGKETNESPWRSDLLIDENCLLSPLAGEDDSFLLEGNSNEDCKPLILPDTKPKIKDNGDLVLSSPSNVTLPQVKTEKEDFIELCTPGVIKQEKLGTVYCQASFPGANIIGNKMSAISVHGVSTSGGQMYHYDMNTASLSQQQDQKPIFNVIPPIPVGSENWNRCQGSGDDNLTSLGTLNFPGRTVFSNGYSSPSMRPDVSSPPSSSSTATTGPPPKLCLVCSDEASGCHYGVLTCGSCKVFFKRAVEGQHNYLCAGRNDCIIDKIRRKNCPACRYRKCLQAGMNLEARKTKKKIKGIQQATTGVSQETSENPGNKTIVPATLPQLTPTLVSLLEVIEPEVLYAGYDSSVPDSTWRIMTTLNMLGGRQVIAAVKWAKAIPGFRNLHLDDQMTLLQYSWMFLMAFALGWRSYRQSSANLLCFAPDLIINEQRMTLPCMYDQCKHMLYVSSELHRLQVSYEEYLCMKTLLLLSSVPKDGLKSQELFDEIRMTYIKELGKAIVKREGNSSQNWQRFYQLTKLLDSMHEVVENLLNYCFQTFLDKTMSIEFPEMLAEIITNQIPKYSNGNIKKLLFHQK

The target of the next assay is T5, Thromboxane A2 receptor (Homo sapiens, UniProt P21731).
T5 sequence (P21731 whole entry): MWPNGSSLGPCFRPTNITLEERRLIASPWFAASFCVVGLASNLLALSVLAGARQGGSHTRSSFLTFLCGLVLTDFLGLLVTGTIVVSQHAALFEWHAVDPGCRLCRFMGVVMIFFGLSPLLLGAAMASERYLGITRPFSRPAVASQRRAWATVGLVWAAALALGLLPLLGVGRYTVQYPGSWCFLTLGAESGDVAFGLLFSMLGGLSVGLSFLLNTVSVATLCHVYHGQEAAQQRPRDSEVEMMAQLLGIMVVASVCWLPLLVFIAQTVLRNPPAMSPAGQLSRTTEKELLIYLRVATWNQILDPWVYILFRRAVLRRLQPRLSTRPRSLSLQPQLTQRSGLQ

In assay [3] the target is cGMP-inhibited 3',5'-cyclic phosphodiesterase 3A (Homo sapiens, UniProt Q14432). The assay is classed as functional.
The target of another assay is D(3) dopamine receptor (Homo sapiens, UniProt P35462).
Note: assay procedure not described here.

Melanocortin receptor 3, sequence (P41968 whole entry): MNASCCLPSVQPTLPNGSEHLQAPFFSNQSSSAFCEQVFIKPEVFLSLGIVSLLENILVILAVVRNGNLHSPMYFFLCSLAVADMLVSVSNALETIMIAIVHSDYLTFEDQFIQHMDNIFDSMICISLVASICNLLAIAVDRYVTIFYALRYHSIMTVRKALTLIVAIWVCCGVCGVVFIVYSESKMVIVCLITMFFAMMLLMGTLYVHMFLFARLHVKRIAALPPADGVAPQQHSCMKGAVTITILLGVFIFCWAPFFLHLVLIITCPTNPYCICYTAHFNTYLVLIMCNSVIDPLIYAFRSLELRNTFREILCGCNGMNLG
cGMP-inhibited 3',5'-cyclic phosphodiesterase 3A, sequence (Q14432 whole entry): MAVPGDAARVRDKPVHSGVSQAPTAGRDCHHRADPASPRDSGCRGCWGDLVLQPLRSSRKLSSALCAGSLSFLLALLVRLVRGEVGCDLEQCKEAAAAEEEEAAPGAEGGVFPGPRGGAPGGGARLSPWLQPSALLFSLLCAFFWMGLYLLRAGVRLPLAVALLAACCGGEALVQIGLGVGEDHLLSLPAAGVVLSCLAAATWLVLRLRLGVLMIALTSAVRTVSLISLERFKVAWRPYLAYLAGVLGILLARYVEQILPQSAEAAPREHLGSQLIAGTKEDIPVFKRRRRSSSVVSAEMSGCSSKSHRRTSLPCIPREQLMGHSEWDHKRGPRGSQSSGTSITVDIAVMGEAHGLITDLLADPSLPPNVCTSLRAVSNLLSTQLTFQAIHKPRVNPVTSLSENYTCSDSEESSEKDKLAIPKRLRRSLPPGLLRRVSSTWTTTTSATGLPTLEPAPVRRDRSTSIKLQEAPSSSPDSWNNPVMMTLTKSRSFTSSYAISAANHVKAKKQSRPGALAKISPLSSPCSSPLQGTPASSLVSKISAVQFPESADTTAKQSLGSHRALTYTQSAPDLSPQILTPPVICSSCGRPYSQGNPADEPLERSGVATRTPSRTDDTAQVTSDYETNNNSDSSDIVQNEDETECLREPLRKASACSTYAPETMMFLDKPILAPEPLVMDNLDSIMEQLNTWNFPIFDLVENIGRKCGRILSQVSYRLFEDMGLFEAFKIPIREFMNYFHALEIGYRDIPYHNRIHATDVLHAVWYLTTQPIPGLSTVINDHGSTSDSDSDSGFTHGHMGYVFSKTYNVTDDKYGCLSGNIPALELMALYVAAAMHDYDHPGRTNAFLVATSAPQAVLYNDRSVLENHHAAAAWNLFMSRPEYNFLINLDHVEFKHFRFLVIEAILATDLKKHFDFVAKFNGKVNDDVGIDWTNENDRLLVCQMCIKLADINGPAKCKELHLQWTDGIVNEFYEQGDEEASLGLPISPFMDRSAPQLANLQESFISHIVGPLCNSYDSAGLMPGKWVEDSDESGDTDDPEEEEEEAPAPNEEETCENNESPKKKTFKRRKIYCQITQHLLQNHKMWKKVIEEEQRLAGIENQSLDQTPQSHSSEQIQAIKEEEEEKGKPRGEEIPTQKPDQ
D(1A) dopamine receptor, sequence (P21728 whole entry): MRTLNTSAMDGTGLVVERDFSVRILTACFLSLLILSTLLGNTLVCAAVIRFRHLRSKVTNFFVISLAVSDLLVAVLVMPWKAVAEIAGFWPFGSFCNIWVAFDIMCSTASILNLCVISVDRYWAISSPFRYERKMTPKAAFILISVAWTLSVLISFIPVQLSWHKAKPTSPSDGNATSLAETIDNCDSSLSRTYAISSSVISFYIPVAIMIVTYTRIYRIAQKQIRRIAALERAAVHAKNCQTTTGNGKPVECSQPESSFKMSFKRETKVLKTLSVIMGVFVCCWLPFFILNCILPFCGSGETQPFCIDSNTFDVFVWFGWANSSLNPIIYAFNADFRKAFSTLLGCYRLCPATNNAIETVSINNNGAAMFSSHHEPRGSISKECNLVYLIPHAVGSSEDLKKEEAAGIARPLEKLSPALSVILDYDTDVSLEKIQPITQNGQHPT
5-hydroxytryptamine receptor 2B, sequence (P41595 whole entry): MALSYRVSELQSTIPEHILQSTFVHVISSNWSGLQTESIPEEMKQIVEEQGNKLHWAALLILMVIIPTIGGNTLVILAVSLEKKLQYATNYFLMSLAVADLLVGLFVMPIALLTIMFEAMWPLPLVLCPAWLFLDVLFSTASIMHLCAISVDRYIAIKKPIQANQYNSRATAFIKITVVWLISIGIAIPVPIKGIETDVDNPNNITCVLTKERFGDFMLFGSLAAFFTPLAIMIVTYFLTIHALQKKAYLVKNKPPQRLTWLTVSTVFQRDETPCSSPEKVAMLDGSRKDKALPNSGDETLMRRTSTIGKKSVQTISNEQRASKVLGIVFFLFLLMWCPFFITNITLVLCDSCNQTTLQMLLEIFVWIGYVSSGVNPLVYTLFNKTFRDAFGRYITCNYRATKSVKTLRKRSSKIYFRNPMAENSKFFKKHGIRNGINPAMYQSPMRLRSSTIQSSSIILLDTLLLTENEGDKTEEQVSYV
D(3) dopamine receptor, sequence (P35462 whole entry): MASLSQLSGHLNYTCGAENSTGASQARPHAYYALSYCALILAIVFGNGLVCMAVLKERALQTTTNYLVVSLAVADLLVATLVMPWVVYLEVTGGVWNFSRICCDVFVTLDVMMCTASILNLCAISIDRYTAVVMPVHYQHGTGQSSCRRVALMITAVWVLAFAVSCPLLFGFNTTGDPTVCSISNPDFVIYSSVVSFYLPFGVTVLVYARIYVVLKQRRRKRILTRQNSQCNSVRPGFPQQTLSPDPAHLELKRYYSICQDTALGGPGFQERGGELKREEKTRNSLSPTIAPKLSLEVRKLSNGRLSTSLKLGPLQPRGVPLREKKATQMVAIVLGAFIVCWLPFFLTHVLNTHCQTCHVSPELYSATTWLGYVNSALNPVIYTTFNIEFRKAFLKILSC

On to `CCc1nc(N)nc(N)c1-c1ccc(Cl)cc1` [PYRIMETHAMINE], for which the AC50 on Adenosine receptor A1 was over 10 µM; at Adenosine receptor A3, over 10 µM; on D(1A) dopamine receptor, over 10 µM; in assay [1], 11.3 µM; in assay [2], over 30 µM; at Melanocortin receptor 3, over 10 µM. Besides, the AC50 on Glucocorticoid receptor was over 10 µM; on Thromboxane A2 receptor, over 10 µM; in assay [3], over 30 µM; at D(3) dopamine receptor, over 30 µM.
Regarding `C=CC[N+]1([C@H]2C[C@H]3[C@@H]4CC[C@H]5C[C@H](O)[C@@H](N6CCOCC6)C[C@]5(C)[C@H]4CC[C@]3(C)[C@H]2OC(C)=O)CCCC1` [ROCURONIUM], the AC50 (on Adenosine receptor A1; on Adenosine receptor A3; on D(1A) dopamine receptor; in assay [1]; in [2]; at Melanocortin receptor 3) was over 30 µM in each case. Moreover, the concentration at half-maximal activity (AC50) (on Glucocorticoid receptor; at Thromboxane A2 receptor; in assay [3]; at D(3) dopamine receptor) was over 30 µM each time.
For the compound `Cc1cc(C)nc(NS(=O)(=O)c2ccc(N)cc2)n1` [SULFAMETHAZINE], the AC50 was over 10 µM at Adenosine receptor A1; over 10 µM on Adenosine receptor A3; over 30 µM at D(1A) dopamine receptor; over 10 µM in assay [1]; over 30 µM in assay [2]; over 10 µM on Melanocortin receptor 3. Moreover, the AC50 on Glucocorticoid receptor was over 10 µM; on Thromboxane A2 receptor it was over 10 µM; in [3], over 30 µM; at D(3) dopamine receptor, over 30 µM.
Take `CCN1CCCC1CNC(=O)c1cc(S(=O)(=O)CC)ccc1OC` (stereo not given) [SULTOPRIDE]: the AC50 on Adenosine receptor A1 is over 30 µM; on Adenosine receptor A3 it was over 30 µM; on D(1A) dopamine receptor, over 30 µM; in [1], 1.3 µM; in [2], over 30 µM; on Melanocortin receptor 3 it was over 30 µM. The AC50 (at Glucocorticoid receptor; on Thromboxane A2 receptor; in [3]; at D(3) dopamine receptor) was over 30 µM each time.
For `C=CCN1CCc2nc(N)sc2CC1` [TALIPEXOLE], the AC50 (on Adenosine receptor A1; at Adenosine receptor A3; on D(1A) dopamine receptor; in [1]; in [2]; at Melanocortin receptor 3) was over 30 µM throughout. The AC50 is over 30 µM at Glucocorticoid receptor, over 30 µM on Thromboxane A2 receptor, over 30 µM in [3] and 0.48 µM at D(3) dopamine receptor.
For `CCOC(=O)c1ccc(C#Cc2ccc3c(c2)C(C)(C)CCS3)nc1` [TAZAROTENE], the concentration at half-maximal activity (AC50) was over 30 µM on Adenosine receptor A1; over 30 µM on Adenosine receptor A3; over 30 µM at D(1A) dopamine receptor; over 10 µM in assay [1]; over 30 µM in assay [2]; over 30 µM on Melanocortin receptor 3. Further, the AC50 (at Glucocorticoid receptor; at Thromboxane A2 receptor; in assay [3]; at D(3) dopamine receptor) was over 30 µM throughout.
Consider `Cn1c(=O)c2c(ncn2CCOC(=O)C(C)(C)Oc2ccc(Cl)cc2)n(C)c1=O` [THEOFIBRATE], for which the AC50 (on Adenosine receptor A1; on Adenosine receptor A3; at D(1A) dopamine receptor; in assay [1]; in assay [2]; on Melanocortin receptor 3) was over 30 µM each time. For the same compound, the AC50 (on Glucocorticoid receptor; on Thromboxane A2 receptor; in [3]; at D(3) dopamine receptor) was over 30 µM each time.
For the compound `COc1cc(C(=O)NC2CCCNC2)cc(OC)c1OC` (stereo not given) [TROXIPIDE], the half-maximal activity concentration (AC50) (at Adenosine receptor A1; on Adenosine receptor A3; on D(1A) dopamine receptor; in [1]; in assay [2]; on Melanocortin receptor 3) was over 30 µM each time. In addition, the AC50 (at Glucocorticoid receptor; on Thromboxane A2 receptor; in assay [3]; at D(3) dopamine receptor) was over 30 µM in each case.
Take `CC(C)(C)NCC(O)c1ccccc1Cl` (stereo not given) [TULOBUTEROL]: the AC50 (at Adenosine receptor A1; at Adenosine receptor A3; on D(1A) dopamine receptor; in [1]; in [2]; at Melanocortin receptor 3) was over 30 µM throughout. The AC50 (at Glucocorticoid receptor; at Thromboxane A2 receptor; in [3]; on D(3) dopamine receptor) was over 30 µM throughout.
Turning to `CC(C(=O)O)c1ccc2c(c1)CC(=O)c1ccccc1S2` (stereo not given) [ZALTOPROFEN], the AC50 (on Adenosine receptor A1; at Adenosine receptor A3; at D(1A) dopamine receptor; in assay [1]; in assay [2]; on Melanocortin receptor 3) was over 30 µM each time. In addition, the AC50 (on Glucocorticoid receptor; at Thromboxane A2 receptor; in assay [3]; at D(3) dopamine receptor) was over 30 µM in each case.
With `CC(c1cc2ccccc2s1)N(O)C(N)=O` (stereo not given) [ZILEUTON], the AC50 on Adenosine receptor A1 is over 10 µM; at Adenosine receptor A3 it was over 10 µM; at D(1A) dopamine receptor, over 10 µM; in assay [1], over 10 µM; in assay [2], over 30 µM; at Melanocortin receptor 3, over 10 µM. Also, the AC50 on Glucocorticoid receptor was over 30 µM; on Thromboxane A2 receptor it was over 10 µM; in [3] it was over 30 µM; on D(3) dopamine receptor, over 30 µM.
